Results as given in ChEMBL document CHEMBL2073812, “Functional analysis of candidate ABC transporter proteins for sitosterol transport” (Biochim Biophys Acta, 2002).

What was measured:
[1] = molecular target: ATP-dependent translocase ABCB1 (Homo sapiens, UniProt P08183); assay: TP_TRANSPORTER: Flow cytometry in MDR1-expressing NIH3T3 cells; type: functional, cell-based; settings: mouse
[2] = molecular target: T1, Broad substrate specificity ATP-binding cassette transporter ABCG2 (Mus musculus, UniProt Q7TMS5); assay: TP_TRANSPORTER: Flow cytometry in lymphocytes from Mdr1a/b-/- mice; type: functional, cell-based; settings: lymphocyte
T1 sequence (Q7TMS5 whole entry): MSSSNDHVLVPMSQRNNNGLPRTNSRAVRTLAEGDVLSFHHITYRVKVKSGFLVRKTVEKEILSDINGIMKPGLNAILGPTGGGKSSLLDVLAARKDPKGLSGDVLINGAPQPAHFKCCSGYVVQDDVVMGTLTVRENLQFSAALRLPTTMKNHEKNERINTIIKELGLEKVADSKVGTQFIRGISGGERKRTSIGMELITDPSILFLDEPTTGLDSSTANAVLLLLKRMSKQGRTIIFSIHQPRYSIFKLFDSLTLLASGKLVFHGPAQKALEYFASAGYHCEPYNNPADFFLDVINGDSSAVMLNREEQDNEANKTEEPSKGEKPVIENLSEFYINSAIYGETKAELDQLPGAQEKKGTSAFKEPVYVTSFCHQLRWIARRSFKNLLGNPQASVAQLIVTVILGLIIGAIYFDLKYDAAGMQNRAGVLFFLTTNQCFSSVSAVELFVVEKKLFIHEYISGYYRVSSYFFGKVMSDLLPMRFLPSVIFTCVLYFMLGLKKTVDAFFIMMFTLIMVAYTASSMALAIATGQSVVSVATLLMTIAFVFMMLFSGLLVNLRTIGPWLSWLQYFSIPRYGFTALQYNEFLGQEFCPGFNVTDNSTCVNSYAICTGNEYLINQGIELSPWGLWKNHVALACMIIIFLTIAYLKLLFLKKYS

[3] = molecular target: Multidrug resistance-associated protein 1 (Mus musculus, UniProt O35379); assay: TP_TRANSPORTER: Flow cytometry in lymphocytes from Mdr1a/b(-/)- mice; type: functional; settings: lymphocyte
Multidrug resistance-associated protein 1, sequence (O35379 whole entry): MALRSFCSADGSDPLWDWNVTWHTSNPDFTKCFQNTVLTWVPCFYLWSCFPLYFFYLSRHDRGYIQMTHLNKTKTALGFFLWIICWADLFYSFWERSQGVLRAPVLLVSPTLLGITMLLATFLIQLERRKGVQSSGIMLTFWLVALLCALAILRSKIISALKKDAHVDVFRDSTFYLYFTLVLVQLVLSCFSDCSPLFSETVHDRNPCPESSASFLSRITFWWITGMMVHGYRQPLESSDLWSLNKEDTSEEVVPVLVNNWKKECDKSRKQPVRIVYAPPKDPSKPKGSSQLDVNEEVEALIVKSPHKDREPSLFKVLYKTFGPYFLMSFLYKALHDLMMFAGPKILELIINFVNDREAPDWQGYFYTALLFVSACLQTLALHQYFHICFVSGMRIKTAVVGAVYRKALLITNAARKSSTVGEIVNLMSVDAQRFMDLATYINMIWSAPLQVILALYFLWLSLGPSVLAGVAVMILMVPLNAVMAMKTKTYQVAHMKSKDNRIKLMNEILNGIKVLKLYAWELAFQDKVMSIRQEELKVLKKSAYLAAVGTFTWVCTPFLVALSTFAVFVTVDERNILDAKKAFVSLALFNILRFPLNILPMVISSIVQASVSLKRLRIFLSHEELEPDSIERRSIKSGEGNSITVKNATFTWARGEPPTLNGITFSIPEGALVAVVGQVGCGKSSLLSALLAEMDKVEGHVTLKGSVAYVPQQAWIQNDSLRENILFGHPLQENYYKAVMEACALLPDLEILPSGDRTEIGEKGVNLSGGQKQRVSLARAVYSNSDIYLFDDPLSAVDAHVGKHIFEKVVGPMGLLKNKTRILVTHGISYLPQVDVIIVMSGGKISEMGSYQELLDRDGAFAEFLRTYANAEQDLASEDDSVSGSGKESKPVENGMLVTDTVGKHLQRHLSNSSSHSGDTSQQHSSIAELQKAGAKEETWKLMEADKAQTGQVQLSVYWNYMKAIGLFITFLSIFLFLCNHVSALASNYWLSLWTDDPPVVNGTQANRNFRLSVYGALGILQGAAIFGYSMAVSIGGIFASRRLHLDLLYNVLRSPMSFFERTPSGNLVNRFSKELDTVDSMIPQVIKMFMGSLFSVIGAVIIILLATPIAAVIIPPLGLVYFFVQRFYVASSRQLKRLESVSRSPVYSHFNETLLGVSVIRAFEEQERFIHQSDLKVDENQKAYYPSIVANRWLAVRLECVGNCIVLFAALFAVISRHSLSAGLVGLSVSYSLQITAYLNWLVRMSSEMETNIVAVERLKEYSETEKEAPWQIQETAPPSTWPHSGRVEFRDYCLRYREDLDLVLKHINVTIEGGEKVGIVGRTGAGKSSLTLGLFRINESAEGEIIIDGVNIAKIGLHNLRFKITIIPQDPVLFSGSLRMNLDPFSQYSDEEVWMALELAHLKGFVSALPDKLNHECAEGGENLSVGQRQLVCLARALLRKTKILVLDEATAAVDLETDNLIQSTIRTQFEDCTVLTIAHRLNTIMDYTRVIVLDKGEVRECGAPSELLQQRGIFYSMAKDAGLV

Bile salt export pump = molecular target: T2, Bile salt export pump (Rattus norvegicus, UniProt O70127); assay: TP_TRANSPORTER: inhibition of taurocholate uptake (taurocholate: 2 uM, beta-sitosterol: 10 uM) in membrane vesicles of Bsep-expressing […] cells; type: functional, cell membranes, Membrane vesicle; settings: sf9, 10 µM
T2 sequence (O70127 whole entry): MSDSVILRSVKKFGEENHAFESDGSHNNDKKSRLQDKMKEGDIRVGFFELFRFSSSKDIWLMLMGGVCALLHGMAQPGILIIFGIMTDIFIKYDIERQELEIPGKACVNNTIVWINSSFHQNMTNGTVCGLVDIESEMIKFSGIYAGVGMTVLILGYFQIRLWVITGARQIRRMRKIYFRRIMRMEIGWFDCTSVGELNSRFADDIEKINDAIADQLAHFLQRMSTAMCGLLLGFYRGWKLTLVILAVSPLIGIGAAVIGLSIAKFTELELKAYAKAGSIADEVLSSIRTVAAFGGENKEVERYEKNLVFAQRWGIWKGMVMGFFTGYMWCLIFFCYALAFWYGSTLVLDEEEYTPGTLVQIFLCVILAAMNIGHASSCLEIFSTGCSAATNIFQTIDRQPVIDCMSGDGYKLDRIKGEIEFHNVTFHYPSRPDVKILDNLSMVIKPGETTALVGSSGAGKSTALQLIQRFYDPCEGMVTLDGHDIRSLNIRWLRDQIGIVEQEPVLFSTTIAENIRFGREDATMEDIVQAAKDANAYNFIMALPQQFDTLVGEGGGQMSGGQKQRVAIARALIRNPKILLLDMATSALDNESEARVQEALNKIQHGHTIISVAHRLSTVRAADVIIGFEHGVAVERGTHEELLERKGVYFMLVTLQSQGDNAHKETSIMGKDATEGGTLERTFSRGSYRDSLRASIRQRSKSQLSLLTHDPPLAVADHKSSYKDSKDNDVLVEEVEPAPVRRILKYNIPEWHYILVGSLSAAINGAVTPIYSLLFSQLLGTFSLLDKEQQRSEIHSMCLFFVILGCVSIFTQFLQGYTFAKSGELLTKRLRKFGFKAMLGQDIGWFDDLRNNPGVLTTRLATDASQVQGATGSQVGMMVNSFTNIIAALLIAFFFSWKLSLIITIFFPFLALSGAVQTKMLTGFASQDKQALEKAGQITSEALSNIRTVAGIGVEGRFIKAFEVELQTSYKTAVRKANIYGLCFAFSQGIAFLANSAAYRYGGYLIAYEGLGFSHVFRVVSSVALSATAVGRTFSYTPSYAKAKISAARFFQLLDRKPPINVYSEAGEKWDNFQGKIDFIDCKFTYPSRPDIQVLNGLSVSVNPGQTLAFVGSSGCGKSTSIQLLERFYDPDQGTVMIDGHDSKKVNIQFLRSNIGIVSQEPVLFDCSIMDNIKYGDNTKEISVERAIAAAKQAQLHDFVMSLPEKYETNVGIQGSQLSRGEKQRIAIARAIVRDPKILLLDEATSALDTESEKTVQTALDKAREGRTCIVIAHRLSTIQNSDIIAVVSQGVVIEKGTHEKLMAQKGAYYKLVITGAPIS

ATP-dependent translocase ABCB1, sequence (P08183 whole entry): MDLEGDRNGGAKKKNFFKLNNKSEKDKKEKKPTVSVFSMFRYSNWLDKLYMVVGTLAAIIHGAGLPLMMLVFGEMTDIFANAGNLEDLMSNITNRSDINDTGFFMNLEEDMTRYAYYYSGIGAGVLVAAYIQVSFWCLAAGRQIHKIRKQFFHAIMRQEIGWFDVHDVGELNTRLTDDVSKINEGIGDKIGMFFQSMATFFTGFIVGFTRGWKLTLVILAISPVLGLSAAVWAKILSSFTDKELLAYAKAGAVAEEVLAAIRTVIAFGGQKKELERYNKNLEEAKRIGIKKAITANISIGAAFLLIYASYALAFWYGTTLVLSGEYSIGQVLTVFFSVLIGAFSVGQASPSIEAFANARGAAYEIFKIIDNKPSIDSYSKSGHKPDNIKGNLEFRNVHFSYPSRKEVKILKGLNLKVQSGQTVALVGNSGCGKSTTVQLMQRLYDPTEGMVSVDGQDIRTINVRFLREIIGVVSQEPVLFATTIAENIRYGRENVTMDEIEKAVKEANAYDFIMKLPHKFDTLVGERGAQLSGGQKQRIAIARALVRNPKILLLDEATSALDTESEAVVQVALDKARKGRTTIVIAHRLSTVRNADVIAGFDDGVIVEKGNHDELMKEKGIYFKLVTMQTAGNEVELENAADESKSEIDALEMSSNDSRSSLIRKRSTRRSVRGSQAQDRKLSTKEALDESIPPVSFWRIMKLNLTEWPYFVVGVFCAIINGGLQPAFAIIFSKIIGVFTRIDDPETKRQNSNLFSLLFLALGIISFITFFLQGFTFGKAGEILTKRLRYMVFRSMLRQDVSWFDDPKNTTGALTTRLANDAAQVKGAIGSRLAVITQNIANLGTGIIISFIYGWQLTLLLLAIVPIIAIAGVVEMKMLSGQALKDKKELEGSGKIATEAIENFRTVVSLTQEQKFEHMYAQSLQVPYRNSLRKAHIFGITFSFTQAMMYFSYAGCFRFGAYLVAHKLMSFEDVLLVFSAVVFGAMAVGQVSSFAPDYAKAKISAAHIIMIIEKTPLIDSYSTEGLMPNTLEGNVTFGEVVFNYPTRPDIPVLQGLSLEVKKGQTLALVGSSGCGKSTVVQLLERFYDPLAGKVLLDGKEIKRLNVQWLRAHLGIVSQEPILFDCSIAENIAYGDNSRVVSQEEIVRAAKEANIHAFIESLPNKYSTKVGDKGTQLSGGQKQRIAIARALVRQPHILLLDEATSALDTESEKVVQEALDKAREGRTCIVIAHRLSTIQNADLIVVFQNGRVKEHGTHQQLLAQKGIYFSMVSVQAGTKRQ

CC[C@H](CC[C@@H](C)[C@H]1CC[C@H]2[C@@H]3CC=C4C[C@@H](O)CC[C@]4(C)[C@H]3CC[C@]12C)C(C)C [BETA-SITOSTEROL]
Activity [1]: is not a substrate [-] | Activity [2]: is not a substrate [-] | Activity [3]: is not a substrate [-] | Activity (Bile salt export pump): is not an inhibitor [-]
